The results in this text go back to patent US9938258B2 (Karyopharm Therapeutics Inc., priority 2012, dated 2018).

Where two headings read alike, the source gives them in different places. A value given as a limit tells only on which side of the number the result lay.

One experiment concerns MS751 cells. Briefly: MTT cell proliferation assay, MS751. Type of experiment: cell-based, human. The conditions noted are these: Homo sapiens. The procedure, abridged:
(§1)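 Seeding 5,000-10,000 cells/well, overnight attachment; 8 concs, 1 nM–30 μM. MTT ~4 h, formazan solubilized, OD 490 nm. % inhibition vs negative control, mostly duplicate, mean±SE.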
For orientation: Formazan colour is commonly taken as a measure of viable cells.

In another experiment the test system is Z138 cells. Briefly: MTT cell proliferation assay, Z138. Type of experiment: cell-based. The conditions noted are these: Homo sapiens. The procedure, abridged:
as §1

The test system of another experiment is 3T3 cells. Put plainly: MTT cell proliferation assay, 3T3. Type of experiment: cell-based, mouse. As to conditions: Mus musculus. The procedure, abridged:
as §1

Where [1] appears, read: MS751, MS751 cells, eight concentrations 1 nM to 30 μM, incubation approximately 64-72 hours, read-out: MTT Assay IC50, MS751.
Where [2] appears, read: Z-138, Z138 cells, eight concentrations 1 nM to 30 μM, incubation approximately 64-72 hours, read-out: MTT Assay IC50, Z138.
Where [3] appears, read: NIH3T3, 3T3 cells, eight concentrations 1 nM to 30 μM, incubation approximately 64-72 hours, read-out: MTT Assay IC50, 3T3.
Where [4] appears, read: MS751, MS751 cells, approximately 64-72 hours incubation, read-out: MTT Assay IC50, MS751.
Where [5] appears, read: Z-138, Z138 cells, approximately 64-72 hours incubation, read-out: MTT Assay IC50, Z138.
Where [6] appears, read: NIH3T3, 3T3 cells, approximately 64-72 hours incubation, read-out: MTT Assay IC50, 3T3.

For the compound `CC(=O)c1ccc(-c2cc(Cl)c3c(c2)CC(CNC(=O)/C=C/c2cncnc2)O3)s1` (stereo not drawn) [Compound 254, (E)-N-((5-(5-acetylthiophen-2-yl)-7-chloro-2,3-dihydrobenzofuran-2-yl)methyl)-3-(pyrimidin-5-yl)acrylamide], the IC50 with MS751 cells (setting [1]), with Z138 cells (setting [2]) and in the experiment with 3T3 cells (setting [3]) was greater than 30 µM each time.
Regarding `CC(=O)c1ccc(-c2cc(Cl)c3c(c2)CC(CNC(=O)/C=C/c2sccc2Cl)O3)s1` (stereo not drawn) [Compound 163, (E)-N-((5-(5-acetylthiophen-2-yl)-7-chloro-2,3-dihydrobenzofuran-2-yl)methyl)-3-(3-chlorothiophen-2-yl)acrylamide], the IC50 with MS751 cells (setting [1]), in the experiment with Z138 cells (setting [2]) and with 3T3 cells (setting [3]) was greater than 30 µM throughout.
`Cc1noc(C)c1-c1cc(Cl)c2c(c1)CC(CNC(=O)/C=C/c1ccc(N)nc1)O2` (stereo not drawn) [Compound 300, (E)-3-(6-aminopyridin-3-yl)-N-((7-chloro-5-(3,5-dimethylisoxazol-4-yl)-2,3-dihydrobenzofuran-2-yl)methyl)acrylamide]: the half-inhibitory concentration (IC50) (in general, the point on the concentration scale where inhibition reaches its midpoint) with MS751 cells (setting [4]) is 0.1 to 5 µM; in the experiment on Z138 cells (setting [5]), less than 0.1 µM; in the experiment with 3T3 cells (setting [6]) it was greater than 30 µM.
For the compound `CC(=O)c1ccc(-c2cc(Cl)c3c(c2)CC(CNC(=O)/C=C/c2ccc(Cl)nc2)O3)s1` (stereo not drawn) [Compound 45, (E)-N-((5-(5-acetylthiophen-2-yl)-7-chloro-2,3-dihydrobenzofuran-2-yl)methyl)-3-(6-chloropyridin-3-yl)acrylamide], the IC50 in the experiment with MS751 cells (setting [1]), in the experiment with Z138 cells (setting [2]) and in the experiment on 3T3 cells (setting [3]) was greater than 30 µM throughout.
Regarding `Nc1ccc(/C=C/C(=O)NCC2Cc3cc(-c4ccc(C(=O)CN5CCOCC5)cc4)cc(Cl)c3O2)cn1` (stereo not drawn) [Compound 906, (E)-3-(6-Aminopyridin-3-yl)-N-((7-chloro-5-(4-(2-morpholinoacetyl)phenyl)-2,3-dihydrobenzofuran-2-yl)methyl)acrylamide], the IC50 in the experiment on MS751 cells (setting [4]) is less than 0.1 µM; in the experiment on Z138 cells (setting [5]) it was less than 0.1 µM; with 3T3 cells (setting [6]), 0.1 to 5 µM.
Turning to `CC(=O)c1ccc(-c2cc(Cl)c3c(c2)CC(CNC(=O)/C=C/c2cccnn2)O3)o1` (stereo not drawn) [Compound 314, (E)-N-((5-(5-acetylfuran-2-yl)-7-chloro-2,3-dihydrobenzofuran-2-yl)methyl)-3-(pyridazin-3-yl)acrylamide], the IC50 in the experiment on MS751 cells (setting [4]), with Z138 cells (setting [5]) and in the experiment with 3T3 cells (setting [6]) was 0.1 to 5 µM in each case.
In the case of `Nc1ccc(/C=C/C(=O)NCC2Cc3c(-c4ccccc4C(=O)N4CC(F)(F)C4)ccc(Cl)c3O2)cn1` (stereo not drawn) [Compound 341, (E)-3-(6-aminopyridin-3-yl)-N-((7-chloro-4-(2-(3,3-difluoroazetidine-1-carbonyl)phenyl)-2,3-dihydrobenzofuran-2-yl)methyl)acrylamide], the figures for the IC50 in the experiment on MS751 cells (setting [4]), in the experiment with Z138 cells (setting [5]) and with 3T3 cells (setting [6]) were less than 0.1 µM, 0.1 to 5 µM and less than 0.1 µM, respectively.
`Nc1ccc(/C=C/C(=O)NCC2Cc3cc(-c4ccc(C(=O)C(=O)N5CCOCC5)cc4)cc(Cl)c3O2)cn1` (stereo not drawn) [Compound 909, (E)-3-(6-aminopyridin-3-yl)-N-((7-chloro-5-(4-(2-morpholino-2-oxoacetyl)phenyl)-2,3-dihydrobenzofuran-2-yl)methyl)acrylamide]: the IC50 in the experiment on MS751 cells (setting [4]) was less than 0.1 µM; with Z138 cells (setting [5]) it was less than 0.1 µM; in the experiment on 3T3 cells (setting [6]) it was 0.1 to 5 µM.
`CC(=O)c1ccc(-c2cc(Cl)c3c(c2)CC(CNC(=O)/C=C/c2csc(C)n2)O3)s1` (stereo not drawn) [Compound 159, (E)-N-((5-(5-acetylthiophen-2-yl)-7-chloro-2,3-dihydrobenzofuran-2-yl)methyl)-3-(2-methylthiazol-4-yl)acrylamide]: the IC50 in the experiment with MS751 cells (setting [1]), with Z138 cells (setting [2]) and in the experiment with 3T3 cells (setting [3]) was greater than 30 µM throughout.
In the case of `CC1(C)COCCN1C(=O)c1ccc(-c2cc(Cl)c3c(c2)CC(/C=C/C(=O)NCc2ccc(N)nc2)O3)cc1` (stereo not drawn) [Compound 367, (E)-N-((6-aminopyridin-3-yl)methyl)-3-(7-chloro-5-(4-(3,3-dimethylmorpholine-4-carbonyl)phenyl)-2,3-dihydrobenzofuran-2-yl)acrylamide], the IC50 is less than 0.1 µM with MS751 cells (setting [4]), less than 0.1 µM in the experiment with Z138 cells (setting [5]) and 0.1 to 5 µM in the experiment on 3T3 cells (setting [6]).
Consider `CC(=O)c1ccc(-c2cc(Cl)c3c(c2)CC(CNC(=O)/C=C/c2cccnc2)O3)o1` (stereo not drawn) [Compound 99, (E)-N-((5-(5-acetylfuran-2-yl)-7-chloro-2,3-dihydrobenzofuran-2-yl)methyl)-3-(pyridin-3-yl)acrylamide], for which the values for the half-maximal inhibitory concentration (IC50) in the experiment on MS751 cells (setting [1]), in the experiment on Z138 cells (setting [2]) and in the experiment on 3T3 cells (setting [3]) were less than 0.1 µM, less than 0.1 µM and 0.1 to 5 µM, respectively.
In the case of `CC(=O)c1ccc(-c2cc(Cl)c3c(c2)CC(CNC(=O)/C=C/c2ccc(O)nc2)O3)s1` (stereo not drawn) [Compound 311, (E)-N-((5-(5-acetylthiophen-2-yl)-7-chloro-2,3-dihydrobenzofuran-2-yl)methyl)-3-(6-hydroxypyridin-3-yl)acrylamide], the IC50 is greater than 30 µM in the experiment with MS751 cells (MS751, read-out: MTT Assay IC50, MS751); greater than 30 µM in the experiment with Z138 cells (Z-138, read-out: MTT Assay IC50, Z138); greater than 30 µM in the experiment with 3T3 cells (NIH3T3, read-out: MTT Assay IC50, 3T3).
`CC(=O)c1ccc(-c2cc(Cl)c3c(c2)CC(CNC(=O)/C=C/c2ccno2)O3)s1` (stereo not drawn) [Compound 293, (E)-N-((5-(5-acetylthiophen-2-yl)-7-chloro-2,3-dihydrobenzofuran-2-yl)methyl)-3-(isoxazol-5-yl)acrylamide]: the IC50 with MS751 cells (setting [4]), with Z138 cells (setting [5]) and in the experiment with 3T3 cells (setting [6]) was greater than 30 µM each time.
In the case of `CC(C)(O)c1ccc(-c2cc(Cl)c3c(c2)CC(CNC(=O)/C=C/c2cccnc2)O3)s1` (stereo not drawn) [Compound 304, (E)-N-((7-chloro-5-(5-(2-hydroxypropan-2-yl)thiophen-2-yl)-2,3-dihydrobenzofuran-2-yl)methyl)-3-(pyridine-3-yl)acrylamide], the IC50 in the experiment on MS751 cells (setting [4]) was less than 0.1 µM; in the experiment with Z138 cells (setting [5]) it was less than 0.1 µM; with 3T3 cells (setting [6]) it was 0.1 to 5 µM.
Consider `CC(=O)c1ccc(-c2cc(Cl)c3c(c2)CC(CNC(=O)/C=C/c2cncc(S(=O)(=O)N(C)C)c2)O3)s1` (stereo not drawn) [Compound 210, (E)-N-((5-(5-acetylthiophen-2-yl)-7-chloro-2,3-dihydrobenzofuran-2-yl)methyl)-3-(5-(N,N-dimethylsulfamoyl)pyridin-3-yl)acrylamide], for which the IC50 is 5 to 30 µM in the experiment with MS751 cells (setting [4]), greater than 30 µM in the experiment on Z138 cells (setting [5]) and greater than 30 µM in the experiment on 3T3 cells (setting [6]).
As for `O=C(/C=C/c1cccnn1)NCC1Cc2cc(-c3ccc(C(=O)N4CCOCC4)cc3)cc(Cl)c2O1` (stereo not drawn) [Compound 236, (E)-N-((7-chloro-5-(4-(morpholine-4-carbonyl)phenyl)-2,3-dihydrobenzofuran-2-yl)methyl)-3-(pyridazin-3-yl)acrylamide], the IC50 in the experiment on MS751 cells (setting [4]), with Z138 cells (setting [5]) and in the experiment with 3T3 cells (setting [6]) was 0.1 to 5 µM throughout.
`CC(=O)c1ccc(-c2cc(Cl)c3c(c2)CC(CNC(=O)/C=C/c2cnccc2N)O3)s1` (stereo not drawn) [Compound 108, (E)-N-((5-(5-acetylthiophen-2-yl)-7-chloro-2,3-dihydrobenzofuran-2-yl)methyl)-3-(4-aminopyridin-3-yl)acrylamide]: the IC50 lay within 0.1 to 5 µM with MS751 cells (setting [1]), 0.1 to 5 µM in the experiment with Z138 cells (setting [2]) and 5 to 30 µM with 3T3 cells (setting [3]).
On to `CNc1ccc(/C=C/C(=O)NCC2Cc3cc(-c4ccc(C(C)=O)s4)cc(Cl)c3O2)cn1` (stereo not drawn) [Compound 294, (E)-N-((5-(5-acetylthiophen-2-yl)-7-chloro-2,3-dihydrobenzofuran-2-yl)methyl)-3-(6-(methylamino)pyridin-3-yl)acrylamide], for which the IC50 in the experiment on MS751 cells (setting [4]) was in the range of 0.1 to 5 µM; in the experiment with Z138 cells (setting [5]), 0.1 to 5 µM; in the experiment with 3T3 cells (setting [6]), 5 to 30 µM.
In the case of `Nc1ccc(/C=C/C(=O)NCC2Cc3cc(-c4cnc(C(=O)N5CCOCC5)nc4)cc(Cl)c3O2)cn1` (stereo not drawn) [Compound 323, (E)-3-(6-aminopyridin-3-yl)-N-((7-chloro-5-(2-(morpholine-4-carbonyl)pyrimidin-5-yl)-2,3-dihydrobenzofuran-2-yl)methyl)acrylamide], the half-maximal inhibitory concentration (IC50) with MS751 cells (setting [4]) is 0.1 to 5 µM; in the experiment with Z138 cells (setting [5]) it was 0.1 to 5 µM; with 3T3 cells (setting [6]) it was 5 to 30 µM.
For `CC(=O)c1ccc(-c2cc(Cl)c3c(c2)CC(CNC(=O)/C=C/c2cnn(C)c2C)O3)s1` (stereo not drawn) [Compound 157, (E)-N-((5-(5-acetylthiophen-2-yl)-7-chloro-2,3-dihydrobenzofuran-2-yl)methyl)-3-(1,5-dimethyl-1H-pyrazol-4-yl)acrylamide], the half-maximal inhibitory concentration (IC50) with MS751 cells (setting [1]), with Z138 cells (setting [2]) and with 3T3 cells (setting [3]) was greater than 30 µM in each case.
Take `Nc1ccc(CNC(=O)/C=C/C2Cc3cc(-c4ccc(C(=O)N5CC[C@@H](F)C5)cc4)cc(Cl)c3O2)cn1` (stereo partly drawn) [Compound 358, (E)-N-((6-aminopyridin-3-yl)methyl)-3-(7-chloro-5-(4-((R)-3-fluoropyrrolidine-1-carbonyl)phenyl)-2,3-dihydrobenzofuran-2-yl)acrylamide]: the 50% inhibitory concentration (IC50) in the experiment on MS751 cells (setting [4]) is 0.1 to 5 µM; in the experiment on Z138 cells (setting [5]), greater than 30 µM; with 3T3 cells (setting [6]), 0.1 to 5 µM.
Regarding `Nc1ccc(/C=C/C(=O)NCC2Cc3cc(-c4ccc(CC(=O)N5CCOCC5)cc4)cc(Cl)c3O2)cn1` (stereo not drawn) [Compound 921, (E)-3-(6-aminopyridin-3-yl)-N-((7-chloro-5-(4-(2-morpholino-2-oxoethyl)phenyl)-2,3-dihydrobenzofuran-2-yl)methyl)acrylamide], the half-inhibitory concentration (IC50) with MS751 cells (setting [4]) is less than 0.1 µM; with Z138 cells (setting [5]), less than 0.1 µM; with 3T3 cells (setting [6]) it was 0.1 to 5 µM.
